Consider 17 compounds from US10472356B2, “Bicyclic ketone sulfonamide compounds” (AMGEN INC., priority 2015, dated 2019).

Test [1] has as its target T1, human Nav1.7 (Homo sapiens, UniProt Q15858).
T1 construct: expressed in transfected cells; host or cells: HEK293
Description: Nav 1.7 In Vitro PatchXpress (PX) Assay. The format is cell-based. The conditions noted are these: HEK 293 cells stably transfected with human Nav1.7; PatchXpress whole cell voltage clamp; partially inactivated state (holding potential yielding 20 to 50% inactivation); read-out: hNav1.7 PX IC50. The procedure, abridged: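 Percent inhibition of peak sodium current taken after 3 min exposure to one compound concentration, 3–5 cells each, with IC50 curve fits. Partially inactivated channels (20–50% inactivation at holding potential) in Nav1.7-HEK 293 cells, activated by 20 ms steps to −10 mV every 10 s.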

Test [2] concerns the target T1, human Nav1.7. Description: Nav 1.7 IWB In Vitro Assay (IonWorks Barracuda). It counts as cell-based. The following applies: HEK293 cells stably transfected with human Nav 1.7; IonWorks Barracuda population patch-clamp; cells clamped to −20 mV for 4 minutes with compound; 26th pulse; read-out: hNav1.7 IWB IC50. The procedure, abridged: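 IC50 derived from concentration-response of percent block of the 26th-pulse peak inward current, compound vs none. Protocol: stable human Nav 1.7 HEK293 cells on automated population patch clamp, held at −110 mV, 5 Hz train of 150 ms steps to −20 mV, 4 min compound exposure depolarized at −20 mV, 3 s repolarization, train repeated.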
Background: In patch-clamp work, channel activity is measured electrically.

T1 sequence (Q15858 whole entry): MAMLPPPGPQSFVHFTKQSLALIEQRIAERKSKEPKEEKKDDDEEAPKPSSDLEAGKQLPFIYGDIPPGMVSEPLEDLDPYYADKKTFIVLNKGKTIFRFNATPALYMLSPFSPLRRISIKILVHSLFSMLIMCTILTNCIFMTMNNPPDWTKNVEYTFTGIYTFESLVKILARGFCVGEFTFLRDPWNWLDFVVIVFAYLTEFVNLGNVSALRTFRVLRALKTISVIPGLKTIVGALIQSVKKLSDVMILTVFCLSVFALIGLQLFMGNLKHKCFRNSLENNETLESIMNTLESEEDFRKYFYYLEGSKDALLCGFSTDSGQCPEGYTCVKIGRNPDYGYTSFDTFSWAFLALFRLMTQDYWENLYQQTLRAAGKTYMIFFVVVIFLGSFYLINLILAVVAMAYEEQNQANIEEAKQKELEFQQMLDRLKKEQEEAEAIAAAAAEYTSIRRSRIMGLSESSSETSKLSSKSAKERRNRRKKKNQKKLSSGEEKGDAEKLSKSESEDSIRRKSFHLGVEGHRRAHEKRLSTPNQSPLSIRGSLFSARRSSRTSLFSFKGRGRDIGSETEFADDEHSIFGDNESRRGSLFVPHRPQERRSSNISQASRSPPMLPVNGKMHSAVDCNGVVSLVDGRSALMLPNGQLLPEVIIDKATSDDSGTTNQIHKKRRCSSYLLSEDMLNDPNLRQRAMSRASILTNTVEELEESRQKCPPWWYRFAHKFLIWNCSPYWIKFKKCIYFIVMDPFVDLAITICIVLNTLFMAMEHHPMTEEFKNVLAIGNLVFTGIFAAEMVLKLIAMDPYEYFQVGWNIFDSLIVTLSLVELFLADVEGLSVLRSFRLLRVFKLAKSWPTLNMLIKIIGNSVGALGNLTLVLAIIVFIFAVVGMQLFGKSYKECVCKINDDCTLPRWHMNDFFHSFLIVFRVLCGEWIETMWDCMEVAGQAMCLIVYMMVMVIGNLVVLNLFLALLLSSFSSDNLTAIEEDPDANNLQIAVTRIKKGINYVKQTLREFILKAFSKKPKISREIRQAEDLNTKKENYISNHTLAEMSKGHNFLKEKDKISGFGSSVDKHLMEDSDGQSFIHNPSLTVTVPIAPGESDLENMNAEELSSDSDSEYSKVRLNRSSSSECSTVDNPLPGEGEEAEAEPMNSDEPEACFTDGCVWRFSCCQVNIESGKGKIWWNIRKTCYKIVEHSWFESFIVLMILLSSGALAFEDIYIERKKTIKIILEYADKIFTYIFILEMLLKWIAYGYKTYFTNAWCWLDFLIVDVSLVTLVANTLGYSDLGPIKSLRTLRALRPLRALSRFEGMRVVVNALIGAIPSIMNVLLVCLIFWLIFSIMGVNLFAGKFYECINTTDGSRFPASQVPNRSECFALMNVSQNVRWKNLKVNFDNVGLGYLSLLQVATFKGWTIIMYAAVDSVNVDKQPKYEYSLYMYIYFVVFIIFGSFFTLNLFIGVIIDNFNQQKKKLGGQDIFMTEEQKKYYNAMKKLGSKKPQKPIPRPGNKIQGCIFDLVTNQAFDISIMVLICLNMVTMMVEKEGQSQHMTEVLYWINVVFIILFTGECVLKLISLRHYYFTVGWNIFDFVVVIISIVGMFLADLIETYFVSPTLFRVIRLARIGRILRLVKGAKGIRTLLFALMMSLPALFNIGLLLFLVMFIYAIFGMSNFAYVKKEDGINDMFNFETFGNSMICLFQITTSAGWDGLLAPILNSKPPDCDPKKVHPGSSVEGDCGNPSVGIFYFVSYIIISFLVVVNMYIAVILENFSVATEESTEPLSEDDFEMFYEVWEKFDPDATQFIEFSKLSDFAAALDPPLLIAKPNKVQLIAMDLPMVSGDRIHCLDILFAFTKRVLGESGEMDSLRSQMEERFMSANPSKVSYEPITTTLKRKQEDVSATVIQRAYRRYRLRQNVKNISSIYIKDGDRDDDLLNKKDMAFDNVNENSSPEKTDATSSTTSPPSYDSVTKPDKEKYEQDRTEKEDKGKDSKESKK

Usually IC50 stands for the concentration needed to halve the response being measured. Take `COc1ccc(-c2cc(OC)c(-n3c4c(ccc3=O)CN(S(=O)(=O)Nc3cccnn3)CC4)cc2F)cc1Cl` [Example 63, P-1-(3′-chloro-2-fluoro-4′,5-dimethoxy-[1,1′-biphenyl]-4-yl)-2-oxo-N-(pyridazin-3-yl)-1,2,7,8-tetrahydro-1,6-naphthyridine-6(5H)-sulfonamide]: the IC50 in test [1] was determined as 321 nM; in test [2], 22.2 nM.
For `COc1cc(-c2ccc(F)c(F)c2)c(F)cc1-n1c2c(ccc1=O)CN(S(=O)(=O)Nc1ncccn1)CC2` (racemic) [Example 28-(Rac), (Rac)-2-oxo-N-2-pyrimidinyl-1-(2,3′,4′-trifluoro-5-methoxy-4-biphenylyl)-1,5,7,8-tetrahydro-1,6-naphthyridine-6(2H)-sulfonamide], in that order: 1680 nM and 199 nM.
In the case of `COc1cc(-c2ccc(F)c(C)c2)c(F)cc1-n1c2c(ccc1=O)CN(S(=O)(=O)Nc1ncccn1)CC2` (single isomer, unassigned) [Example 29-P, P-1-(2,4′-difluoro-5-methoxy-3′-methyl-4-biphenylyl)-2-oxo-N-2-pyrimidinyl-1,5,7,8-tetrahydro-1,6-naphthyridine-6(2H)-sulfonamide], the half-maximal inhibitory concentration (IC50) in test [1] came out at 568 nM; in test [2] it was 55.5 nM.
For `COc1cc(-c2cc(F)cc(F)c2)c(F)cc1-n1c2c(ccc1=O)CN(S(=O)(=O)Nc1ccon1)[C@@H](C)C2` (single isomer, unassigned) [Example 3-C-M], in that order: > 1000 nM and 8520 nM.
For `COc1cc(-c2cc(F)cc(Cl)c2)c(F)cc1-n1c2c(ccc1=O)CN(S(=O)(=O)Nc1ccon1)CC2` (single isomer, unassigned) [Example 18-M, M-1-(3′-chloro-2,5′-difluoro-5-methoxy-4-biphenylyl)-N-3-isoxazolyl-2-oxo-1,5,7,8-tetrahydro-1,6-naphthyridine-6(2H)-sulfonamide], the IC50 came to 3560 nM in test [1] and 567 nM in test [2].
For `COc1cc(-c2cc(F)cc(Cl)c2)c(Cl)cc1-n1c2c(ccc1=O)CN(S(=O)(=O)Nc1ccon1)CC2` [Example 53, P-1-(2,3′-dichloro-5′-fluoro-5-methoxy-4-biphenylyl)-N-3-isoxazolyl-2-oxo-1,5,7,8-tetrahydro-1,6-naphthyridine-6(2H)-sulfonamide], in that order: 5.2 nM and 0.7 nM.
Take `COc1nc(-c2cc(F)cc(Cl)c2)c(F)cc1-n1c2c(ccc1=O)CN(S(=O)(=O)Nc1ccon1)CC2` (racemic) [Example 36, (Rac)-1-(6-(3-chloro-5-fluorophenyl)-5-fluoro-2-methoxy-3-pyridinyl)-N-3-isoxazolyl-2-oxo-1,5,7,8-tetrahydro-1,6-naphthyridine-6(2H)-sulfonamide]: the IC50 in test [1] is 423 nM; in test [2], 173 nM.
`COc1ccc(C(F)(F)F)cc1-c1cc(OC)c(-n2c3c(ccc2=O)CN(S(=O)(=O)Nc2cccnn2)CC3)cc1F` [Example 74, P-1-(2-fluoro-2′,5-dimethoxy-5′-(trifluoromethyl)-[1,1′-biphenyl]-4-yl)-2-oxo-N-(pyridazin-3-yl)-1,2,7,8-tetrahydro-1,6-naphthyridine-6(5H)-sulfonamide]: the IC50 in test [1] came out at 29.4 nM; in test [2], 7.7 nM.
As to `COc1cc(-c2cc(F)cc(Cl)c2)ccc1-n1c2c(ccc1=O)CN(S(=O)(=O)Nc1cccnn1)CC2` (racemic) [8-(Rac), (Rac)-1-(3′-chloro-5′-fluoro-3-methoxy-4-biphenylyl)-2-oxo-N-3-pyridazinyl-1,5,7,8-tetrahydro-1,6-naphthyridine-6(2H)-sulfonamide], the IC50 in test [1] turned out to be 350 nM; in test [2], 31.7 nM.
As for `COc1cc(-c2cccc(C(F)(F)F)c2)c(Cl)cc1-n1c2c(ccc1=O)CN(S(=O)(=O)Nc1cccnn1)CC2` (racemic) [Example 91-(Rac), (Rac)-1-(2-chloro-5-methoxy-3′-(trifluoromethyl)-[1,1′-biphenyl]-4-yl)-2-oxo-N-(pyridazin-3-yl)-1,2,7,8-tetrahydro-1,6-naphthyridine-6(5H)-sulfonamide], the values for the IC50 in test [1] and in test [2] were 29.9 nM and 11.2 nM, respectively.
With `COc1cc(-c2ccc(F)c(C)c2)c(C)cc1-n1c2c(ccc1=O)CN(S(=O)(=O)Nc1cccnn1)CC2` (single isomer, unassigned) [Example 93-M, M-1-(4′-fluoro-5-methoxy-2,3′-dimethyl-[1,1′-biphenyl]-4-yl)-2-oxo-N-(pyridazin-3-yl)-1,2,7,8-tetrahydro-1,6-naphthyridine-6(5H)-sulfonamide], the IC50 in test [1] is 1800 nM; in test [2], 270 nM.
Regarding `COc1cc(-c2ccc(F)c(C)c2)c(C)cc1-n1c2c(ccc1=O)CN(S(=O)(=O)Nc1cccnn1)CC2` (single isomer, unassigned) [Example 93-P, P-1-(4′-fluoro-5-methoxy-2,3′-dimethyl-[1,1′-biphenyl]-4-yl)-2-oxo-N-(pyridazin-3-yl)-1,2,7,8-tetrahydro-1,6-naphthyridine-6(5H)-sulfonamide], the IC50 in test [1] amounted to 116 nM; in test [2], 21.8 nM.
Consider `COc1cc(-c2cc(F)cc(F)c2)c(F)cc1-n1c2c(ccc1=O)[C@@H](C)N(S(=O)(=O)Nc1ccon1)CC2` (single isomer, unassigned) [Example 3-A-M], for which the IC50 in test [1] was > 1000 nM; in test [2] it was 2800 nM.
On to `COc1cc(-c2cc(F)cc(F)c2)c(F)cc1-n1c2c(ccc1=O)CN(S(=O)(=O)Nc1ccncn1)CC2` [Example 88, P-2-oxo-N-(pyrimidin-4-yl)-1-(2,3′,5′-trifluoro-5-methoxy-[1,1′-biphenyl]-4-yl)-1,2,7,8-tetrahydro-1,6-naphthyridine-6(5H)-sulfonamide], for which the figures for the IC50 in test [1] and in test [2] were 475 nM and 31.2 nM, respectively.
Regarding `COc1cc(-c2cc(F)cc(Cl)c2)c(F)cc1-n1c2c(ccc1=O)CN(S(=O)(=O)Nc1ccccn1)CC2` (racemic) [Example 11-(Rac), (Rac)-1-(3′-chloro-2,5′-difluoro-5-methoxy-4-biphenylyl)-2-oxo-N-2-pyridinyl-1,5,7,8-tetrahydro-1,6-naphthyridine-6(2H)-sulfonamide], the IC50 worked out at 371 nM in test [1] and 60.9 nM in test [2].
As to `COc1cc(-c2cc(C)cc(OC(F)(F)F)c2)c(F)cc1-n1c2c(ccc1=O)CN(S(=O)(=O)Nc1cccnn1)CC2` [Example 78, P-1-(2-fluoro-5-methoxy-3′-methyl-5′-(trifluoromethoxy)-[1,1′-biphenyl]-4-yl)-2-oxo-N-(pyridazin-3-yl)-1,2,7,8-tetrahydro-1,6-naphthyridine-6(5H)-sulfonamide], the IC50 in test [1] amounted to 44.5 nM; in test [2] it was 5.3 nM.
On the same counts, the results for `COc1cc(-c2cc(F)cc(F)c2)c(F)cc1-n1c2c(ccc1=O)CN(S(=O)(=O)Nc1ncc(F)cn1)CC2` (single isomer, unassigned) [Example 10-M, M-N-(5-fluoro-2-pyrimidinyl)-2-oxo-1-(2,3′,5′-trifluoro-5-methoxy-4-biphenylyl)-1,5,7,8-tetrahydro-1,6-naphthyridine-6(2H)-sulfonamide] are 612 nM and 102 nM.
